{
  "source": "patent US20110159095A1",
  "about": "“TREATMENT OF ADRENAL INSUFFICIENCY” (priority 2008, published 2011)",
  "system": "HPA axis",
  "assay": "Plasma ACTH in dexamethasone-suppressed healthy subjects",
  "assay_type": "in vivo, human",
  "details": "1 mg oral dexamethasone repeated; confirms suppression of HPA axis",
  "experimental": "Plasma ACTH levels were taken at 2155 h on Day 1 and on 0600 h on Day 2 whilst serum cortisol levels were taken prior to ingestion of the drug and were repeated every 30 minutes for the first four hours, then at 0200 h, 0300 h, 0400 h, 0500 h, 0600 h, 0800 h, 1000 h, 1300 h, 1600 h, 2200 h.\nAssays: Serum cortisol was measured using the Bayer Advia Centaur Automated Immunoassay System. The inter-assay coefficient variation was 7% at 200 nmol/l (7.2 μg/dl), and 8% at 1,050 nmol/l (38 μg/dl). Plasma ACTH was measured using the DPC Immulite 2000 assay. Plasma 17OH-progesterone was measured using Liquid Chromatography Tandem Mass Spectrometry at Quest Diagnostics (Nichols Institute, San Juan Capistrano, Calif., USA) with an inter-assay coefficient of variation of 8.2%.",
  "data": [
    {"smiles": "C[C@@H]1C[C@H]2[C@@H]3CCC4=CC(=O)C=C[C@]4(C)[C@@]3(F)[C@@H](O)C[C@]2(C)[C@@]1(O)C(=O)CO", "note": "[dexamethasone]", "values": [
      {"measurement": "ACTH values below the assay lower limit", "result": 98, "unit": "%"}
    ]}
  ]
}
